Assay results taken from patent US20260000079A1, “COMPOSITIONS AND METHODS FOR MODULATING IMMUNITY IN PLANTS” (BOYCE THOMPSON INSTITUTE FOR PLANT RESEARCH, INC., priority 2019, published 2026).

How the values were obtained:
tomato root exudates = assay: LC-MS of root exudates and growth media of ascr #18-treated tomato seedlings; type: in vivo, Solanum lycopersicum
Method: Data are average±SEM (n=6), n.d.=not detected. […] Exudates from approximately 40 seedlings were collected in distilled water and pooled. Abundances of ascarosides are shown as the peak area, as measured by LC-MS. Data are average±SEM (n=3); n.d.=not detected. FIGS. 5C and 5D show the relative abundances of ascarosides in root exudates of eight-day old tomato seedlings treated with 10 nM (FIG. 5C) or 1000 nM (FIG. 5D) ascr #18 for 6 hours. Exudates from approximately 10 seedlings were collected in distilled water and pooled. Abundances of ascarosides are shown as the peak area, as measured by LC-MS. Data are average±SEM (n=3); n.d.=not detected. FIG. 5E provides the relative abundances of ascr #10, ascr #1, and ascr #9 in the growth media of eight-day old tomato seedlings supplemented with 1 μM ascr #18. Ten-gram media samples were collected at different time points over a 48 hour period for metabolome extraction. Abundances of ascarosides are shown as the peak area, as measured by LC-MS.
To test this possibility, root-secreted metabolites of ascr #18- and mock-treated Arabidopsis were compared (FIG. 5A). For this experiment, 10-day old Arabidopsis seedlings were treated in growth media supplemented with ascr #18 for 6 hours prior to collection of exudates from roots submerged in water. […] Analogous results were obtained in experiments with tomato roots (FIG. 5C, 5D).

[1] = tested on: entomopathogenic nematode species; conditions: Kaplan, et al. (2012); cited from earlier work
[2] = tested on: Pseudomonas syringae DC3000; assay: Bacterial growth assay in ascr #18-pretreated Arabidopsis; type: in vivo, Pseudomonas syringae pv. tomato; conditions: 1 μM, 24 hours pretreatment; acx1acx5 and wildtype Arabidopsis
Method: FIG. 4A provides a schematic of the experimental designs for assessing activation of defense pathways and resistance to nematodes and bacteria. […] Bacterial growth was assayed 3 days post inoculation. Data are averages±s.d. (n=17). […] Arabidopsis seedlings were treated with buffer or the indicated concentrations of ascr #18 for 48 hours before inoculation with approximately 300 freshly hatched M. incognita J2 larvae. The numbers of root galls of infected plants were counted 6 weeks post inoculation. Data are averages±s.d. (n≥15). […] Larvae touching root tips (FIG. 4D) or the whole area of roots (FIG. 4E) were counted at 6 hours post seedling transfer. […] Transcript levels were determined by qRT-PCR and plotted as relative fold-change compared to mock treated plants. […]
Given the rapid conversion of ascr #18 into shorter-chained ascarosides via pβo, the inventors investigated whether metabolism of the pathogen-produced compound ascr #18 produced by plant pathogenic nematodes is required for the activation of plant defense responses and resistance to other non-nematode pathogens. […] To test whether ascaroside metabolism plays a role in ascr #18-mediated enhanced resistance to a bacterial pathogen, the effect of ascr #18 treatment on infection with Pseudomonas syringae DC3000 was evaluated in the acx1acx5 mutant and wildtype Arabidopsis.

Structure (SMILES) | relative abundance among root-excreted ascr #18 metabolites (tomato root exudates) | dispersal behavior [1] | protection against P. syringae infection (bacterial growth 3 days post inoculation) [2]
C[C@H](CCC(=O)O)O[C@@H]1O[C@@H](C)[C@H](O)C[C@H]1O [ascr #9] | most abundant | mediate dispersal behavior | 
CC1O[C@@H](O[C@@H](C)CCCCCCCCC(=O)O)C(O)C[C@H]1O (stereo in doubt) [ascr #18, (10R)-(3′R,5′R-dihydroxy-6′S-methyl-(2H)-tetrahydropyran-2-yloxy)-undecanoic acid] |  |  | comparable levels of protection
